# “And” between values parts separate entries of the source, which are not always exact repeats. Identical values can stand only once.
# How the values were obtained:
# HLA-E*0103 = HLA-E*0103 (Homo sapiens, UniProt P13747); assay type: binding
# CD94/NKG2C = assay type: binding, human
# CD94/NKG2A [1] = assay type: binding, human
# CD94/NKG2A [2] = details: cited from earlier work
# CD56dimNKG2A- NK cells = assay type: cell-based, human
# CD56dimNKG2A+ NK cells = assay type: cell-based, human
substance,measurement,setting,value
EADPTGHSY/ NLVPMVATV [MAGE-1/HCMV PP65],HLA-E MFI,HLA-E*0103,8070 and 8138 and 7351
EADPTGHSY [MAGE-1],CD94/NKG2C+HLA-E+,CD94/NKG2C,0.54% and 1.07% and 0.11%
same,CD94/NKG2A+HLA-E+,CD94/NKG2A [1],0.02% and 0.28% and 0.56%
LQPRTFLL,recognition of HLA-E/peptide complex by CD94/NKG2A on NK cells,CD94/NKG2A [2],could recognize and interact
VMPLSAPTL,recognition of HLA-E/peptide complex by CD94/NKG2A on NK cells,CD94/NKG2A [2],could not be interacted with CD94/NKG2A
VMAPRTLIL [HLA-Cw*03 leading seq],CD94/NKG2C+HLA-E+,CD94/NKG2C,1.12% and 2.94% and 8.23%
same,CD94/NKG2A+HLA-E+,CD94/NKG2A [1],46.76% and 47.67% and 24.83%
same,frequency of CD94/NKG2A+HLA-E+ cells,CD94/NKG2A [1],47.67%
same,FI,HLA-E*0103,2.38 and 2.67 and 2.55
same,FI (fluorescent index of HLA-E expression),HLA-E*0103,2.55
same,HLA-E MFI,HLA-E*0103,26721 and 22777 and 24852
AISPRTLNA [AA9],recognition of HLA-E/peptide complex by NKG2A/CD94 on NK cells,CD94/NKG2A [2],unable to be recognized by NKG2A/CD94
NLVPMVATV [PP65],Perforin+CD56dimCD16+NKG2A-NKG2C-CD57-NK cells,CD56dimNKG2A- NK cells,97.2 and 72.64 and 80.98 and 81.41
same,CD107a+CD56dimCD16+NKG2A+NKG2C-CD57-NK cells,CD56dimNKG2A+ NK cells,4.88 and 4.5 and 3.34

# — article PMC12303380 (PLOS Pathogens, 2025)
